From ChEMBL document CHEMBL5523727, “Discovery of KT-413, a Targeted Protein Degrader of IRAK4 and IMiD Substrates Targeting MYD88 Mutant Diffuse Large B-Cell Lymphoma” (J Med Chem, 2024) come the findings set out here.

The term half-life denotes the time needed for the level to fall by half in the phase considered. Read a low half-life as fast loss. The clearance is the volume of plasma or blood freed of the substance per unit of time. A word on the bioavailability: it is dose-corrected exposure relative to a reference, in per cent. A lower bioavailability goes with poor availability. In general, IC50 refers to the point on the concentration scale where inhibition reaches its midpoint. Read a low IC50 as greater potency. By Kd is commonly meant the equilibrium constant for the complex coming apart. As usually defined, the DC50 is the concentration giving 50% degradation. The AUC is the area under the concentration-time curve, a measure of exposure. One may read the Emax as the maximal effect, on the per cent scale that the assay sets.

Molecules are shown by their SMILES. Where only a bound is given, the exact number is not on record here.

A short description of series [1]: Metabolic stability in rat liver microsomes assessed as intrinsic clearance at 1 uM measured upto 60 mins in presence of NADPH by UPLC/MS-MS analysis. It counts as ADME, Microsome. Particulars: read-out: CLH. On the technique in general: Microsomes from liver hold many membrane-bound enzymes, among them those of drug oxidation.
The nature of series [2]: Passive permeability of the compound in wild type MDCK cells across apical to basolateral side at 1 uM measured for 120 mins by LC-MS/MS analysis. Particulars: dog, read-out: permeability. The class given is ADME, cell-based, Canis lupus familiaris.
A short description of series [3]: Half life in rat at 2 mg/kg, iv by LC-MS/MS analysis. It counts as ADME, organism-based. Particulars: in vivo.
A short description of series [4]: Metabolic stability in human liver microsomes assessed as intrinsic clearance at 1 uM measured upto 60 mins in presence of NADPH by UPLC/MS-MS analysis. It counts as ADME, Microsome. Particulars: read-out: CLH.
The nature of series [5]: Clearance in rat at 2 mg/kg, iv by LC-MS/MS analysis. The class given is ADME, organism-based. Particulars: in vivo.
The nature of series [6]: Oral bioavailability in rat at 10 mg/kg by LC-MS/MS analysis. It counts as ADME, organism-based. Particulars: in vivo.
The subject of the next series is OCI-Ly10. The series is described as follows: Antiproliferative activity against human OCI-Ly10 cells measured after 4 days by CellTiter-Glo Luminescent Cell Viability Assay. It counts as functional, cell-based. Particulars: Homo sapiens, OCI-Ly10, 96 h. (In general: In ATP-based viability assays light output follows the ATP content of the culture.)
Series [7] deals with Protein cereblon/Interleukin-1 receptor-associated kinase 4 (Homo sapiens, UniProt Q96SW2+Q9NWZ3). The series can be described thus: Binding affinity to CRBN/IRAK4 […] assessed as dissociation constant by DiscoverX Kd Elect assay.
Sequence of Protein cereblon/Interleukin-1 receptor-associated kinase 4 (Homo sapiens, UniProt Q96SW2+Q9NWZ3) (Q9NWZ3 whole entry): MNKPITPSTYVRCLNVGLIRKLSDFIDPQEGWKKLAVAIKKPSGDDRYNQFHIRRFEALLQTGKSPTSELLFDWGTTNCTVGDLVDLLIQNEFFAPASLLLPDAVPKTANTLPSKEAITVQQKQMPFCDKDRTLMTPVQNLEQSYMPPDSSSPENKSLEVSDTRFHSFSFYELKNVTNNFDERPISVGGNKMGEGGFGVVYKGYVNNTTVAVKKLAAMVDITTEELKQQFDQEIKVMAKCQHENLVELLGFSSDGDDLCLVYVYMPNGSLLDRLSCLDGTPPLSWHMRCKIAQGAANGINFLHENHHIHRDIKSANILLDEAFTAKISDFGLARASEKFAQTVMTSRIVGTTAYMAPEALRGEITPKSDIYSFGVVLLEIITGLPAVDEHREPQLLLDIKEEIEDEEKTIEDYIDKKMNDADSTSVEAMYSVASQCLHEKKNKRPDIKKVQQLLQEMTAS
Sequence of Protein cereblon/Interleukin-1 receptor-associated kinase 4 (Homo sapiens, UniProt Q96SW2+Q9NWZ3) (Q96SW2 whole entry): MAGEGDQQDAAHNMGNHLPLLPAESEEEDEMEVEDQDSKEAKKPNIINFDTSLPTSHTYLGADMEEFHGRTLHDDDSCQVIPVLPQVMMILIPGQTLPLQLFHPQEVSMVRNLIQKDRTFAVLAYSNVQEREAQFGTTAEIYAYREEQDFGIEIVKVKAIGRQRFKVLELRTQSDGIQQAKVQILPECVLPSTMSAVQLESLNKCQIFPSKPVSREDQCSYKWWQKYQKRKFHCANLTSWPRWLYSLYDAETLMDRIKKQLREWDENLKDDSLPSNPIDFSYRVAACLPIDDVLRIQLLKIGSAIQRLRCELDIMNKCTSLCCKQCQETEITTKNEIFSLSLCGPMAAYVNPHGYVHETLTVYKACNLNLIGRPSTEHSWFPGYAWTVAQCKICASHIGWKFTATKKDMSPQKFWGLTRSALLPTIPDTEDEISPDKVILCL
Another series has as its target Cereblon/Ikaros (Homo sapiens, UniProt Q96SW2+Q13422). The series can be described thus: PROTAC activity at CRBN/Ikaros in human OCI-Ly10 cells assessed as induction of Ikaros degradation measured after 24 hrs by MSD assay. It counts as cell-based.
The next series addresses Protein cereblon (Homo sapiens, UniProt Q96SW2). The series is described as follows: Binding affinity to CRBN (unknown origin) by HTRF assay.
Series [8] can be described thus: Volume of distribution at steady state in rat at 2 mg/kg, iv by LC-MS/MS analysis. Particulars: in vivo, read-out: Vdss. The class given is ADME, organism-based.
Series [9] concerns the target T1, Protein cereblon/Interleukin-1 receptor-associated kinase 4 (Homo sapiens, UniProt Q9NWZ3+Q96SW2). The series can be described thus: PROTAC activity at CRBN/IRAK4 in human OCI-Ly10 cells assessed as induction of IRAK4 degradation measured after 24 hrs by MSD assay. It counts as cell-based.
Target sequence in this assay (Q9NWZ3 whole entry): as the sequence (Q9NWZ3 whole entry) above
Target sequence in this assay (Q96SW2 whole entry): as the sequence (Q96SW2 whole entry) above
A short description of series [10]: AUC in rat at 10 mg/kg, po by LC-MS/MS analysis. The class given is ADME, organism-based. The note with it: in vivo, read-out: AUC.
Series [11] concerns the target T1, Protein cereblon/Interleukin-1 receptor-associated kinase 4. The series is described as follows: PROTAC activity at CRBN/IRAK4 in human OCI-Ly10 cells assessed as induction of IRAK4 degradation measured after 24 hrs by MSD assay relative to control. The class given is cell-based.
Target sequence in this assay (Q96SW2 whole entry, looked up): as the sequence (Q96SW2 whole entry) above
Target sequence in this assay (Q9NWZ3 whole entry, looked up): as the sequence (Q9NWZ3 whole entry) above

Sequence of Protein cereblon (Q96SW2 whole entry): as the sequence (Q96SW2 whole entry) above
Sequence of Cereblon/Ikaros (Q96SW2 whole entry): as above
Sequence of Cereblon/Ikaros (Q13422 whole entry): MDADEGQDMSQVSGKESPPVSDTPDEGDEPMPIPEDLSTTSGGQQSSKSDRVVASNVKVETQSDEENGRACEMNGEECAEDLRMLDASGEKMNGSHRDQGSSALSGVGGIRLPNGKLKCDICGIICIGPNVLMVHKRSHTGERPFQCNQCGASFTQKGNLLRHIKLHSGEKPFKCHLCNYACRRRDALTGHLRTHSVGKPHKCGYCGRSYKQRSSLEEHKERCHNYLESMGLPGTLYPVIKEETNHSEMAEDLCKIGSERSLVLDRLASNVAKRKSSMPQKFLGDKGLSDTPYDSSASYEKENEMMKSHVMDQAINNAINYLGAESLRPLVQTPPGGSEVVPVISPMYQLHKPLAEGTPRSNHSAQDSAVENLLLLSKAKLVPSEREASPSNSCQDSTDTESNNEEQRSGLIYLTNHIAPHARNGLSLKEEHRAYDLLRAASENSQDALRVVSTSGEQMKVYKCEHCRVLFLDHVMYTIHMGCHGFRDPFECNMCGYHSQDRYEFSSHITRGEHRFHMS

With `CN(CCCO[C@H]1C[C@H](Nc2cccc3c2C(=O)N(C2CCC(=O)NC2=O)C3=O)C1)C[C@H]1CC[C@H](n2cc3cc(NC(=O)c4cccc(C(F)(F)F)n4)c(C(C)(C)O)cc3n2)CC1` (stereo partly specified), the microsomal CLint at 1 µM was 26 µL/min/mg in series [1] and 68 µL/min/mg in [4]. Further, the Papp A→B at 2 h, 1 µM in series [2] worked out at 4.9 ×10⁻⁶ cm/s. Moreover, the half-life in [3] is 3.8 h. The compound also registered a clearance in [5] of 36 mL/min/kg. The compound further showed a bioavailability in series [6] of 15%. Moreover, the IC50 in the series with OCI-Ly10 was found to be 14 nM; at Protein cereblon, 21 nM. For the same compound, in [7], the equilibrium dissociation constant (Kd) was 0.63 nM. The DC50 was found to be 5 nM at Cereblon/Ikaros and 4 nM in series [9]. In addition, the Vd in series [8] amounted to 9.5 L/kg. The AUC in series [10] worked out at 0.76 µM·h.

Take `CN(C[C@H]1CC[C@H](n2cc3cc(NC(=O)c4cccc(C(F)(F)F)n4)c(C(C)(C)O)cc3n2)CC1)[C@H]1CCC2(CC1)C[C@H](Nc1cccc3c1C(=O)N(C1CCC(=O)NC1=O)C3=O)C2` (stereo partly specified): in [11], the Emax came out at 86%.

In the case of `CC(C)(O)c1cc2c(cnn2CCCCCCCCCNc2cccc3c2C(=O)N(C2CCC(=O)NC2=O)C3=O)cc1NC(=O)c1cccc(C(F)(F)F)n1` (stereo unspecified), the maximal response (Emax) in [11] turned out to be 30%. In addition, the IC50 amounted to 660 nM in the series with OCI-Ly10 and 880 nM on Protein cereblon. In series [7], the Kd is > 3000 nM. Further, the DC50 was 56 nM at Cereblon/Ikaros and > 10000 nM in [9].

For `CC(C)(O)c1cc2nn([C@H]3CC[C@H](CN4CCC(O[C@H]5C[C@H](Nc6cccc7c6C(=O)N(C6CCC(=O)NC6=O)C7=O)C5)CC4)CC3)cc2cc1NC(=O)c1cccc(C(F)(F)F)n1` (stereo partly specified), the microsomal CLint at 1 µM in series [1] amounted to 3.8 µL/min/mg; in series [4] it was 4.1 µL/min/mg. Also, in series [2], the Papp A→B at 2 h, 1 µM came out at 26 ×10⁻⁶ cm/s. For the same compound, in series [3], the half-life was 16 h. Besides, the clearance in [5] is 7 mL/min/kg. Moreover, the bioavailability in series [6] came to 29%. For the same compound, the figures for the IC50 in the series on OCI-Ly10 and at Protein cereblon were 2300 nM and 26 nM, respectively. Besides, the figures for the DC50 (on Cereblon/Ikaros; in [9]) were 470 nM and 5 nM, respectively. In addition, in [8], the Vd amounted to 8.9 L/kg. In addition, in [10], the AUC came out at 5.3 µM·h.

`COc1cc2nc([C@H]3CC[C@H](CN4CC5(CC(CCNc6cccc7c6C(=O)N(C6CCC(=O)NC6=O)C7=O)C5)C4)CC3)n(C)c2cc1NC(=O)c1cccc(C(F)(F)F)n1` (stereo partly specified): the microsomal CLint at 1 µM was 2.2 µL/min/mg in series [1] and 7 µL/min/mg in [4]. Also, in series [2], the Papp A→B at 2 h, 1 µM was 0.4 ×10⁻⁶ cm/s. In [3], this compound gave a half-life of 11 h. This compound also had a clearance in [5] of 41 mL/min/kg. In series [6], this compound had a bioavailability of 2.3%. The same compound gave an IC50 in the series on OCI-Ly10 of 35 nM. Moreover, the DC50 worked out at 2 nM at Cereblon/Ikaros and 33 nM in [9]. The Vd in series [8] was found to be 33 L/kg. In addition, the AUC in [10] is 0.09 µM·h.

Regarding `COc1cc2nc([C@H]3CC[C@H](CN4CC5(CC(CCNc6cccc7c6C(=O)N(C6CCC(=O)NC6=O)C7=O)C5)C4)CC3)cn2cc1NC(=O)c1cccc(C(F)(F)F)n1` (stereo partly specified), the microsomal CLint at 1 µM in series [1] and in [4] was < 1.8 µL/min/mg throughout. The Papp A→B at 2 h, 1 µM in series [2] was determined as 0.64 ×10⁻⁶ cm/s. In series [3], the half-life is 15 h. In addition, the clearance in series [5] worked out at 40 mL/min/kg. Also, in [6], the bioavailability was < 1%. This compound gave an IC50 in the series on OCI-Ly10 of 154 nM. The DC50 on Cereblon/Ikaros worked out at 26 nM; in series [9], 38 nM. Further, the Vd in series [8] was 43 L/kg. Besides, the area under the curve (AUC) in series [10] amounted to 0.01 µM·h.

As to `CC(C)(O)c1cc2nn([C@H]3CC[C@H](CN4CCC5(CC4)CC(Nc4cccc6c4C(=O)N(C4CCC(=O)NC4=O)C6=O)C5)CC3)cc2cc1NC(=O)c1cccc(C(F)(F)F)n1` (stereo partly specified), the microsomal CLint at 1 µM amounted to 2.7 µL/min/mg in [1] and 1.2 µL/min/mg in series [4]. The Papp A→B at 2 h, 1 µM in series [2] came out at 2.8 ×10⁻⁶ cm/s. For the same compound, in series [3], the half-life is 12 h. The same compound gave a clearance in series [5] of 13 mL/min/kg. This compound also returned a bioavailability in series [6] of 17%. Further, the figures for the IC50 in the series with OCI-Ly10 and on Protein cereblon were 25 nM and 10 nM, respectively. For the same compound, the half-maximal degradation concentration (DC50) at Cereblon/Ikaros is 27 nM; in [9], 3 nM. In addition, the Vd in [8] stood at 13 L/kg. For the same compound, the AUC in [10] came out at 1.4 µM·h.
